Experiments:
Experiment in all cases: relative viability (nuclei count vs DMSO), 5 days (fraction); higher = more cells survive
[1] = compound: CCc1cnn2c(NCc3ccc[n+]([O-])c3)cc(N3CCCC[C@H]3CCO)nc12 [Dinaciclib] + CC1(C)CCC(c2ccc(Cl)cc2)=C(CN2CCN(c3ccc(C(=O)NS(=O)(=O)c4ccc(N[C@H](CCN5CCOCC5)CSc5ccccc5)c(S(=O)(=O)C(F)(F)F)c4)cc3)CC2)C1 [Navitoclax] (partner 0.5 µM)
Method in brief: (§1)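 Lung cancer cell lines in 1536-well plates were dosed by pin tool the day after seeding, either with one drug alone or with a fixed anchor-drug dose plus five library-drug doses (not always all listed) in √10 steps. After 5 days, cells were fixed and their nuclei stained in one step (final 0.05% Triton X-100, 1% formaldehyde, 1 ug/ml Hoechst), then counted on 4× images. Relative viability is the nuclei count in treated wells divided by that in vehicle wells. Values are medians of duplicate plates.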

[2] = compound: CCc1cnn2c(NCc3ccc[n+]([O-])c3)cc(N3CCCC[C@H]3CCO)nc12 [Dinaciclib] + CCNC(=O)c1noc(-c2cc(C(C)C)c(O)cc2O)c1-c1ccc(CN2CCOCC2)cc1 [Luminespib] (partner 0.01 µM)
Method in brief: as §1

[3] = compound: CCc1cnn2c(NCc3ccc[n+]([O-])c3)cc(N3CCCC[C@H]3CCO)nc12 [Dinaciclib] + CC(=O)Nc1cccc(-n2c(=O)n(C3CC3)c(=O)c3c(Nc4ccc(I)cc4F)n(C)c(=O)c(C)c32)c1 [Trametinib] (partner 0.02 µM)
Method in brief: as §1

[4] = compound: CCc1cnn2c(NCc3ccc[n+]([O-])c3)cc(N3CCCC[C@H]3CCO)nc12 [Dinaciclib] + NC(=O)Nc1cc(-c2cccc(F)c2)sc1C(=O)N[C@H]1CCCNC1 [AZD7762] (partner 0.2 µM)
Method in brief: as §1

[5] = compound: CCc1cnn2c(NCc3ccc[n+]([O-])c3)cc(N3CCCC[C@H]3CCO)nc12 [Dinaciclib] + Nc1ncn([C@H]2C[C@H](O)[C@@H](CO)O2)c(=O)n1 [Decitabine] (partner 2 µM)
Method in brief: as §1

| Cell Line | relative viability ([1]; first compound 0.009487 µM) | relative viability ([1]; first compound 0.03 µM) | relative viability ([1]; first compound 0.09487 µM) | relative viability ([1]; first compound 0.3 µM) | relative viability ([2]; first compound 0.009487 µM) | relative viability ([2]; first compound 0.03 µM) | relative viability ([2]; first compound 0.09487 µM) | relative viability ([2]; first compound 0.3 µM) | relative viability ([3]; first compound 0.009487 µM) | relative viability ([3]; first compound 0.03 µM) | relative viability ([3]; first compound 0.09487 µM) | relative viability ([3]; first compound 0.3 µM) | relative viability ([4]; first compound 0.009487 µM) | relative viability ([4]; first compound 0.03 µM) | relative viability ([4]; first compound 0.09487 µM) | relative viability ([4]; first compound 0.3 µM) | relative viability ([5]; first compound 0.009487 µM) | relative viability ([5]; first compound 0.03 µM) | relative viability ([5]; first compound 0.09487 µM) | relative viability ([5]; first compound 0.3 µM) |
| --- | --- | --- | --- | --- | --- | --- | --- | --- | --- | --- | --- | --- | --- | --- | --- | --- | --- | --- | --- | --- |
| NCI-H2405 | 0.795 | 0.0802 | 0.0747 | 0.0589 | 0.688 | 0.231 | 0.193 | 0.247 | 0.676 | 0.236 | 0.233 | 0.203 | 0.539 | 0.202 | 0.193 | 0.196 | 0.7 | 0.261 | 0.212 | 0.219 |
| NCI-H3122 | 0.973 | 0.156 | 0.119 | 0.142 | 0.115 | 0.122 | 0.0991 | 0.0858 | 0.292 | 0.102 | 0.0935 | 0.0911 | 1.07 | 0.107 | 0.0953 | 0.0953 | 0.404 | 0.117 | 0.121 | 0.107 |
| PC-3 [JPC-3] | 0.764 | 0.713 | 0.394 | 0.2 | 0.668 | 0.417 | 0.219 | 0.199 | 0.737 | 0.657 | 0.334 | 0.321 | 0.904 | 0.476 | 0.308 | 0.279 | 0.794 | 0.671 | 0.34 | 0.302 |
| PC-14 | 0.78 | 0.0911 | 0.0667 | 0.0708 | 0.146 | 0.0837 | 0.0681 | 0.0507 | 0.412 | 0.0589 | 0.0476 | 0.0471 | 0.389 | 0.0715 | 0.0519 | 0.0512 | 0.157 | 0.0718 | 0.0642 | 0.0671 |
| RERF-LC-KJ | 0.906 | 0.172 | 0.122 | 0.169 | 0.452 | 0.195 | 0.179 | 0.208 | 0.753 | 0.22 | 0.143 | 0.152 | 1.04 | 0.498 | 0.114 | 0.155 | 0.476 | 0.157 | 0.157 | 0.147 |

— the supplement of paper PMC10307832
